According to US10688093B2, “Methods, compositions, and uses of novel Fyn kinase inhibitors” (priority 2015, dated 2020):

Biological target: full-length recombinant human FYN A (Homo sapiens (Human), UniProt P06241)
Experiment: ADP-Glo Kinase Assay of FYN kinase inhibition
Format: biochemical
Conditions: primary screen, initial compounds
How it was run: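 GST-tagged full-length FYN A (baculovirus, Sf9) at 3 pg preincubated 30 min RT with compound (10-point 3-fold series from 10 μM) in Tris pH 7.5/MgCl2 buffer. 12-mer tyrosine peptide plus 12.5 pmol ATP added, 90 min RT; ADP measured by ADP-Glo luminescence, IC50 from dose-response.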

Sequence of full-length recombinant human FYN A (P06241 whole entry): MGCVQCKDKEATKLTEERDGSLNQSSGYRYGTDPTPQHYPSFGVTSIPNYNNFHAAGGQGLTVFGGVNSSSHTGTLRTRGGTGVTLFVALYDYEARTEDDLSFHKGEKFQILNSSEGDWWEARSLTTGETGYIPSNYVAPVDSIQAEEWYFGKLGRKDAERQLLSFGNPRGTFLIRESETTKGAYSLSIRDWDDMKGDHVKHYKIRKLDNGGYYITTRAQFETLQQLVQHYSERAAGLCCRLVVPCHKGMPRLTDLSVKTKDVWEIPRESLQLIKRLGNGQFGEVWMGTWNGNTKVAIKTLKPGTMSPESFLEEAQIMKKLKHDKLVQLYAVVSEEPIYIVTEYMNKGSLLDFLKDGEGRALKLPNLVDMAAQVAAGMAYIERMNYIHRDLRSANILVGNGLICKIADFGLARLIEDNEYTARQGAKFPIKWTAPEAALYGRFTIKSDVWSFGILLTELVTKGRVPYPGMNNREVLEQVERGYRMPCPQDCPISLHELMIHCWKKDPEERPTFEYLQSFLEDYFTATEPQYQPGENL

IC50 [µM]	Structure (SMILES)
2.05	NC(=O)c1ccc(-c2ccnc3[nH]nc(-c4cccc(F)c4)c23)cc1 [Compound 509, 4-[3-(3-fluorophenyl)-1H-pyrazolo[3,4-b]pyridin-4-yl]benzamide]
5.71	NC(=O)c1ccc(-c2ccnc3[nH]nc(-c4ccc(Cl)cc4)c23)cc1 [Compound 510, 4-[3-(4-chlorophenyl)-1H-pyrazolo[3,4-b]pyridin-4-yl]benzamide]
5.03	COc1cc(-c2n[nH]c3nccc(-c4cccc(O)c4)c23)cc(OC)c1OC [Compound 511, 3-[3-(3,4,5-trimethoxy-phenyl)-1H-pyrazolo[3,4-b]pyridin-4-yl]phenol]
19.7	CC(=O)c1cccc(-c2ccnc3[nH]nc(C4CCNCC4)c23)c1 [Compound 512, 1-[3-[3-(4-piperidyl)-1H-pyrazolo[3,4-b]pyridin-4-yl]phenyl] ethanone]
4.87	CC(=O)Nc1ccc(-c2ccnc3[nH]nc(-c4ccsc4)c23)cc1 [Compound 513, N-[4-[3-(3-thienyl)-1H-pyrazolo[3,4-b]pyridin-4-yl]phenyl] acetamide]
11.9	COc1cc(-c2ccnc3[nH]nc(C4CCNCC4)c23)ccc1O [Compound 514, 2-methoxy-4-[3-(4-piperidyl)-1H-pyrazolo[3,4-b]pyridin-4-yl]phenol]
12.8	COc1cc(-c2n[nH]c3nccc(-c4cccc(NS(C)(=O)=O)c4)c23)cc(OC)c1OC [Compound 515, N-[3-[3-(3,4,5-trimethoxy-phenyl)-1H-pyrazolo[3,4-b]pyridin-4-yl]phenyl] methane-sulfonamide]
4.9	COc1ccccc1-c1n[nH]c2nccc(-c3ccoc3)c12 [Compound 516, 4-(3-furyl)-3-(2-methoxyphenyl)-1H-pyrazolo[3,4-b]pyridine]
6.25	Oc1cccc(-c2ccnc3[nH]nc(-c4ccc5c(c4)OCO5)c23)c1 [Compound 517, 3-[3-(1,3-benzodioxol-5-yl)-1H-pyrazolo[3,4-b]pyridin-4-yl]phenol]
14.3	c1cncc(-c2n[nH]c3nccc(-c4ccoc4)c23)c1 [Compound 518, 4-(3-furyl)-3-(3-pyridyl)-1H-pyrazolo[3,4-b]pyridine]
5.38	COc1cc(-c2n[nH]c3nccc(-c4ccc(CO)cc4)c23)cc(OC)c1OC [Compound 519, [4-[3-(3,4,5-trimethoxy-phenyl)-1H-pyrazolo[3,4-b]pyridin-4-yl]phenyl] methanol]
17.6	COc1cccc(-c2ccnc3[nH]nc(C4CCNCC4)c23)c1 [Compound 520, 4-(3-methoxyphenyl)-3-(4-piperidyl)-1H-pyrazolo[3,4-b]pyridine]
1.58	COc1ccccc1-c1n[nH]c2nccc(-c3ccc(C#N)cc3)c12 [Compound 521, 4-[3-(2-methoxyphenyl)-1H-pyrazolo[3,4-b]pyridin-4-yl]benzonitrile]
11.1	COc1cc(-c2n[nH]c3nccc(-c4ccc(C(=O)N(C)C)cc4)c23)cc(OC)c1OC [Compound 522, N,N-dimethyl-4-[3-(3,4,5-trimethoxy-phenyl)-1H-pyrazolo[3,4-b]pyridin-4-yl]benzamide]
4.64	OCc1ccc(-c2ccnc3[nH]nc(-c4ccc5c(c4)OCO5)c23)cc1 [Compound 523, [4-[3-(1,3-benzodioxol-5-yl)-1H-pyrazolo[3,4-b]pyridin-4-yl]phenyl] methanol]
11.7	COc1ccc(F)cc1-c1ccnc2[nH]nc(C3CCNCC3)c12 [Compound 524, 4-(5-fluoro-2-methoxy-phenyl)-3-(4-piperidyl)-1H-pyrazolo[3,4-b]pyridine]
11.2	COc1cc(-c2n[nH]c3nccc(-c4ccc(S(C)(=O)=O)cc4)c23)cc(OC)c1OC [Compound 525, 4-(4-methylsulfonyl-phenyl)-3-(3,4,5-trimethoxy-phenyl)-1H-pyrazolo[3,4-b]pyridlne]

IC50 [µM]	Structure (SMILES)
6.5	OCc1ccc(-c2ccnc3[nH]nc(-c4cccc(Cl)c4)c23)cc1 [Compound 526, [4-[3-(3-chlorophenyl)-1H-pyrazolo[3,4-b]pyridin-4-yl]phenyl] methanol]
3.09	OCc1cccc(-c2ccnc3[nH]nc(-c4ccc5c(c4)OCO5)c23)c1 [Compound 527, [3-[3-(1,3-benzodioxol-5-yl)-1H-pyrazolo[3,4-b]pyridin-4-yl]phenyl] methanol]
8.63	c1ccc(-c2n[nH]c3nccc(-c4ccoc4)c23)cc1 [Compound 528, 4-(3-furyl)-3-phenyl-1H-pyrazolo[3,4-b]pyridine]
16.9	COc1ccc(-c2ccnc3[nH]nc(-c4cc(OC)c(OC)c(OC)c4)c23)cn1 [Compound 529, 4-(6-methoxy-3-pyridyl)-3-(3,4,5-trimethoxy-phenyl)-1H-pyrazolo[3,4-b]pyridine]
12.6	c1coc(-c2ccnc3[nH]nc(C4CC4)c23)c1 [Compound 530, 3-cyclopropyl-4-(2-furyl)-1H-pyrazolo[3,4-b]pyridine]
2.28	COc1ccccc1-c1n[nH]c2nccc(-c3ccco3)c12 [Compound 531, 4-(2-furyl)-3-(2-methoxyphenyl)-1H-pyrazolo[3,4-b]pyridine]
1.1	COc1ccccc1-c1n[nH]c2nccc(-c3ccc(CO)cc3)c12 [Compound 532, [4-[3-(2-methoxyphenyl)-1H-pyrazolo[3,4-b]pyridin-4-yl]phenyl] methanol]
6.6	COc1ccccc1-c1n[nH]c2nccc(-c3cccc(C(C)=O)c3)c12 [Compound 533, 1-[3-[3-(2-methoxyphenyl)-1H-pyrazolo[3,4-b]pyridin-4-yl]phenyl] ethanone]
20.2	c1cc(-c2n[nH]c3nccc(-c4ccoc4)c23)ccn1 [Compound 534, 4-(3-furyl)-3-(4-pyridyl)-1H-pyrazolo[3,4-b]pyridine]
15.1	Nc1cccc(-c2ccnc3[nH]nc(-c4cccc(F)c4)c23)c1 [Compound 535, 3-[3-(3-fluorophenyl)-1H-pyrazolo[3,4-b]pyridin-4-yl]aniline]
11.7	NC(=O)c1cccc(-c2ccnc3[nH]nc(-c4ccccc4)c23)c1 [Compound 536, 3-(3-phenyl-1H-pyrazolo[3,4-b]pyridin-4-yl)benzamide]
14.8	COc1cc(-c2n[nH]c3nccc(-c4cccc(N)c4)c23)cc(OC)c1OC [Compound 537, 3-[3-(3,4,5-trimethoxy-phenyl)-1H-pyrazolo[3,4-b]pyridin-4-yl]aniline]
5.23	COc1cc(-c2n[nH]c3nccc(-c4cccc(F)c4)c23)cc(OC)c1OC [Compound 538, 4-(3-fluorophenyl)-3-(3,4,5-trimethoxy-phenyl)-1H-pyrazolo[3,4-b]pyridine]
2.27	O=C(O)/C=C/c1cccc(-c2cnn3ccc(NCc4cccnc4)nc23)c1 [Compound 539, (E)-3-[3-[5-(3-pyridylmethyl-amino)pyrazolo [1,5-a]pyrimidin-3-yl]phenyl]prop-2-enoic acid]
0.442	COc1cc(-c2cc(-c3cccc(C(N)=O)c3)cnc2N)cc(OC)c1OC [Compound 540, 3-[6-amino-5-(3,4,5-trimethoxy-phenyl)-3-pyridyl] benzamide]
3.42	CC(=O)c1ccc(-c2cnc(N)c(-c3cccc(N(C)C)c3)c2)s1 [Compound 541, 1-[5-[6-amino-5-[3-(dimethyl-amino)phenyl]-3-pyridyl]-2-thienyl]ethanone]
31.5	CNc1ccc2ncc(/C=C\CCCO)n2n1 [Compound 542, (Z)-5-[6-(methylamino)imidazo[1,2-b]pyridazin-3-yl]pent-4-en-1-ol]
